Reference: patent US9011853B2, “B7-H4 fusion proteins and methods of use thereof” (Amplimmune, Inc., priority 2009, dated 2015)

Legend:
[1] = tested on: CD4^+CD62L^+ naïve T cells; experiment: Mouse Th17 assay, IL-17A ELISA; type: cell-based; settings: 20, 10, 5, 2.5, and 1.25 μg/mL (FIGS. 57, 58)
Protocol: CD4^+CD62L^+ naïve T cells were isolated from BALB/c mice as in the above examples, and activated by anti-CD3 and anti-CD28 bound beads in the presence of Th17 differntiation cocktail (TGF-β1 (10 ng/mL), IL-6 (50 ng/mL), IL-23 (4 ng/mL), anti-IL-4 (10 μg/mL), anti-IFN-γ (5 μg/mL) and anti-IL-2 (5 μg/mL)). Murine B7-H4-Ig (10 μg/mL) or retinoic acid (RA) (10 μM) was added to the cultures on day 0, day 1, or day 2 of the 4 day culture. IL-17A levels were measured by ELISA at the end of the 4 day culture.
The Th17 assay is 4 days in duration. In order to determine when B7-H4-Ig is acting, the Th17 assay was performed with the addition of 10 μg/mL of murine B7-H4-Ig, 10 μg/mL of mouse IgG control, or […] retinoic acid on Day 0, Day 1, or Day 2.
Peripheral T cells were obtained from spleens and inguinal lymph nodes of 6-9 week old BALB/c mice by mechanical disruption through a cell strainer followed by red blood cell (RBC) lysis.
Naïve helper T cells (CD4^+CD62L^+) were obtained using the Miltenyi Biotec microbead system. CD4^+ cells are enriched by negative selection, and followed by a positive selection of CD62L^+. In some experiments CD25+ cells were also depleted.
After selection, cells are activated in vitro with anti-CD3/CD28 beads at a 1:1 cell:bead ratio in the presence of the TH17 differentiation cocktail (TGF-β1 (10 ng/ml), IL-6 (50 ng/ml), IL-23 (4 ng/ml), anti-IL-2 (5 μg/ml), anti-IL-4 (10 μg/ml), and anti-IFN-γ (5 μg/ml)). Murine B7-H4-Ig is added at a final concentration of 1.25-20 μg/ml. Retinoic acid (RA) is used as positive control and mouse IgG is used as a negative control.
After 4 days of culture, cultures are spun down and supernatants are harvested and stored at <−65° C. until analyzed for IL-17A levels by ELISA.

[2] = tested on: DBA/1J mice; experiment: Collagen-induced arthritis (CIA) prophylactic model, arthritis score; type: in vivo, mouse; settings: 0.5 mg (20 mg/kg) IP from day of CII immunization, 2 times each week up to 6 weeks; days 33 and beyond; vs vehicle (FIG. 3)
From the text: CIA is a well-characterized mouse model for human RA, in which injection of collagen II (CII) into DBA/1J mice induces swelling and progressive inflammation in joints resulting in arthritis. […] B7-H4-Ig treatment continued 2 times each week, up to 6 weeks. On day 21, mice were rechallenged with CII emulsified in IFA. FIG. 2 outlines a brief experimental design. Day 40 was the last B7-H4-Ig treatment.

[3] = tested on: DBA/1J mice; experiment: CIA therapeutic model, arthritis score; type: in vivo, mouse; settings: 300 μg IP 3 times a week for 4 weeks from CII rechallenge (day 21); days 38 and beyond; vs vehicle (FIG. 5)
Protocol: FIG. 4 outlines a brief experimental design of the CIA therapeutic study. DBA/1J mice were first immunized with chicken CII emulsified in CFA. Twenty one days later, the mice were rechallenged with CII emulsified in IFA and randomized into 2 groups. Group 1 (n=10) were IP injected with 300 μg of B7-H4-Ig, 3 times a week for 4 weeks. Group 2 (n=10) were injected with vehicle. Mouse paws/joints were monitored and scored 3 times a week.

[4] = tested on: CTLA4KD/BDC2.5/NOD mice; experiment: Autoimmune diabetes in CTLA4KD/BDC2.5/NOD mice; type: in vivo, mouse
Protocol: CTLA4 KD/NOD mice (Chen, et al., PNAS (2006)) were bred with BDC2.5 TCR transgenic mice (Katz, et al., Cell, 74(6):1089-100 (1993)). Both female and male mice at age of 11 weeks were randomly assigned into experimental groups: vehicle (3 mice), and B7-H4-Ig (5 mice). Mice were treated with B7-H4-Ig 3 times per week for 4 weeks (15 mg/kg, per i.p. injection), and monitored 3 times per week for glucose content in the urine first with Diastix. […] Diabetes was determined when blood glucose reached ≧600 mg/dL.

Row | Substance | activity on mouse cells in the Th17 assay (IL-17A) [1] | overall arthritis scores [2] | overall arthritis scores [3] | autoimmune diabetes (blood glucose ≧600 mg/dL) ([4]; 15 mg/kg i.p. 3 times per week for 4 weeks from age 11 weeks (FIG. 50)) | age until which treated mice did not develop diabetes ([4]; 15 mg/kg i.p. 3 times per week for 4 weeks from age 11 weeks, 10 weeks post treatment)
1 | Human B7-H4-Ig: human B7-H4 extracellular domain fused to hinge, CH2 and CH3 regions of human immunoglobulin Cγ1 chain; representative SEQ ID NOs:114-137 | active | – | – | – | –
2 | B7-H4-Ig: B7-H4 extracellular domain fused to Ig Fc; bare label is the human protein in Example 3, murine protein in Examples 1, 2, 5, 7-11 | – | significantly lower than the scores for vehicle-injected CIA mice | significantly lower than the ones of vehicle injected CIA mice | delayed autoimmune diabetes | 21 weeks old
